“And” between values parts separate entries of the source, which are not always exact repeats. Equal values may be shown once.
System: 941728-121-R-J1-PDC complex spheroid viability
Assay: Anticancer human tumor 941728-121-R-J1-PDC patient-derived lung adenocarcinoma cell line growth inhibition [RAS]
Details: for viability, T/C: stronger effect = lower value
Source text: RAS pathway inhibitors in Combinations in Complex Spheroids
A high-throughput screen of multi-cell type tumor spheroids was designed to identify active combinations of RAS pathway inhibitors and targeted small molecules. Complex spheroids include a stromal component modeled by human endothelial cells (HUVEC) and fibroblasts modeled by human mesenchymal stem cells (MSCs). The concentration ranges selected for each drug and investigational agent were based upon clinically achievable concentrations if the clinical Cmax of the agent was known.
Compounds. The drugs and investigational agents: abemaciclib (NSC768073), cobimetinib (NSC768068), divarasib (GDC6063, NSC841802), docetaxel (NSC628503), GDC-1971 (RLY-1971, NSC841576), gemcitabine (NSC613327), inavolisib (NSC800729), ipatasertib (NSC767898), KB-0742 (NSC834161), MRTX-1133 (NSC836407), osimertinib (NSC779217), RMC-4630 (NSC839698), RMC-6236 (NSC851965), RMC-6291 (NSC852671), Ro-3306 (NSC812927), sapanisertib (NSC764658), SN-38 (NSC673596), staurosporine (NSC755774), SY5609 (NSC837396), and tovorafenib (DAY101, NSC766906), were obtained from the National Cancer Institute (NCI) Developmental Therapeutics Program Chemical Repository. The FDA-approved anticancer drug set is available from the NCI Developmental Therapeutics Program. […] The stock solutions were prepared in dimethyl sulfoxide (DMSO, Sigma-Aldrich, St. Louis, MO, cat. D2650) at 800-fold the tested concentration and stored at -70 degrees C prior to their use. All drugs and investigational agents were tested over a range starting from a high concentration at or near the clinical Cmax and decreasing in half-log increments. If the clinical Cmax for an agent had not been determined, the highest concentration tested was 10 microM.
Cell Culture. All cells were maintained in an incubator at 37 degrees C and 5% CO2 with 95% humidity. The PDC lines were cultured according to standard operating procedures established by the NCI PDMR. All PDCs were thawed and cultured in Matrigel-coated flasks prepared with a working solution of 1X Ham's F-12 nutrient mix, without supplementation (Invitrogen, Waltham, MA, cat. 11765054), 100 U/mL penicillin-streptomycin (Invitrogen, cat. 15140122), and 2.5% Matrigel (Corning Inc., Corning, NY, cat. 354248) for the first three passages. The 362531-283-R-J2-PDC and 782815-120-R-J1-PDC lines were cultured in 6C/Colon 1B media, which includes advanced DMEM/F-12 (Thermo Fisher Scientific, cat. 12634028), 10 mM HEPES (Thermo Fisher Scientific, cat. 15630080), 1X GlutaMAX supplement (Thermo Fisher Scientific, cat. 35050061), 0.1 mg/mL primocin (InvivoGen, San Diego, CA, cat. ant-pm-2), 10% defined fetal bovine serum, heat inactivated (HyClone Laboratories Inc., Logan, UT, cat. SH30070.03HI), 50% L-WRN conditioned media (ATCC, cat. CRL-3276), 1.25 mM N-Acetyl-L-cysteine (Sigma-Aldrich, cat. A9165), 10 mM nicotinamide (Sigma-Aldrich, cat. N0636), 1X B-27 supplement (Thermo Fisher Scientific, cat. 17504044), 1X N-2 supplement (Thermo Fisher Scientific, cat. 17502048), 50 ng/mL human EGF (Thermo Fisher Scientific, cat. PHG0311), and 10 microM Y-27632 dihydrochloride (Tocris Bioscience, cat. 1254). The K12877-001-R-J1-PDC line was cultured in 6I media, which includes all 6C/Colon 1B media plus 10 ng/mL human FGF-10 (PeproTech, cat. 100-26), 1 ng/mL human FGF-2 (PeproTech, cat. 100-18B), 1 µM prostaglandin E2 (Tocris Bioscience, cat. 2296), […] hydrocortisone (Sigma-Aldrich, cat. H4001), and […] bovine insulin (Sigma-Aldrich, cat. I6634). The K86415-001-R-J1-PDC line was cultured in 6D media, which includes all 6C/Colon 1B media components minus the L-WRN conditioned media. The 485176-168-R4-J1-PDC was cultured in PANC media, which includes all 6C/Colon 1B media plus 100 ng/mL human FGF-10 (PeproTech, cat. 100-26), 500 nM SB-431542 (Selleckchem, cat. S1067), and 10 nM gastrin (Tocris Bioscience, cat. 3006). […]

[1] = compound alone, run of 07/15/2024
[2] = compound alone, run of 07/09/2024
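Note: spheroids exposed to compounds for 7 days before readout.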
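Throughout, for viability, T/C: 100% = DMSO vehicle control viability.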

| SMILES | IC50 (curve of compound) | viability, T/C (compound 0.0316 µM) | viability, T/C (compound 0.1 µM) | viability, T/C (compound 0.316 µM) | viability, T/C (compound 1 µM) | viability, T/C (compound 3.16 µM) | viability, T/C (compound 10 µM) | viability, T/C (compound 0.00316 µM) | viability, T/C (compound 0.01 µM) | further results |
| --- | --- | --- | --- | --- | --- | --- | --- | --- | --- | --- |
| C#Cc1c(F)ccc2cc(O)cc(-c3ncc4c(N5CC6CCC(C5)N6)nc(OCC56CCCN5CC(F)C6)nc4c3F)c12 (stereo unspecified) | – | 87.4% [middle of 8 runs] | 82.9% [middle of 8 runs] | 61.2% [middle of 8 runs] | 41.3% [middle of 8 runs] | 32.1% [middle of 8 runs] | 23.3% [middle of 8 runs] | – | – | IC50 [1]: 603 nM [middle of 8 runs] |
| C=CC(=O)Nc1cc(Nc2nccc(-c3cn(C)c4ccccc34)n2)c(OC)cc1N(C)CCN(C)C | – | 68.2% [middle of 4 runs] | 67.7% [middle of 4 runs] | 55.6% [middle of 4 runs] | 47.3% [middle of 4 runs] | – | – | 98.4% [middle of 4 runs] | 82.8% [middle of 4 runs] | – |
| CC(C)n1nc(-c2ccc3oc(N)nc3c2)c2c(N)ncnc21 | 11.4 nM [middle of 4 runs] | 40.9% [middle of 4 runs] | 34.5% [middle of 4 runs] | – | – | – | – | 60.5% [middle of 4 runs] | 55.1% [middle of 4 runs] | viability, T/C (compound 0.000316 µM): 102% [middle of 4 runs]; viability, T/C (compound 0.001 µM): 86.9% [middle of 4 runs] |
| CC1(C)CCC(Nc2ncc(C(F)(F)F)c(-c3c[nH]c4c(P(C)(C)=O)c(C#N)ccc34)n2)CN1 (stereo unspecified) | > 300 nM | – | – | – | – | – | – | – | – | viability, T/C (compound 0.000949 µM): 83.9% [middle of 4 runs]; viability, T/C (compound 0.003 µM): 79.2% [middle of 4 runs]; viability, T/C (compound 0.00949 µM): 62.7% [middle of 4 runs]; viability, T/C (compound 0.03 µM): 63.8% [middle of 4 runs]; viability, T/C (compound 0.0949 µM): 65% [middle of 4 runs]; viability, T/C (compound 0.3 µM): 53.4% [middle of 4 runs] |
| CCN1CCN(Cc2ccc(Nc3ncc(F)c(-c4cc(F)c5nc(C)n(C(C)C)c5c4)n3)nc2)CC1 | > 1000 nM | 65.2% [middle of 4 runs] | 57.7% [middle of 4 runs] | 70.8% [middle of 4 runs] | 72.4% [middle of 4 runs] | – | – | 93.9% [middle of 4 runs] | 80.5% [middle of 4 runs] | – |
| CCn1c(-c2cc(N3CCN(C)CC3)cnc2C(C)OC)c2c3cc(ccc31)-c1csc(n1)CC(NC(=O)C1CC1C)C(=O)N1CCCC(N1)C(=O)OCC(C)(C)C2 (stereo unspecified) | – | – | – | – | – | – | – | – | – | viability, T/C (compound 0.000949 µM): 28.7% [middle of 8 runs]; viability, T/C (compound 0.003 µM): 23.8% [middle of 8 runs]; viability, T/C (compound 0.00949 µM): 17.1% [middle of 8 runs]; viability, T/C (compound 0.03 µM): 13.9% [middle of 8 runs]; viability, T/C (compound 0.0949 µM): 14.7% [middle of 8 runs]; viability, T/C (compound 0.3 µM): 13.4% [middle of 8 runs]; IC50 [2]: < 0.949 nM |
| CCn1c(-c2cccnc2C(C)OC)c2c3cc(ccc31)N1CCOC(CC(NC(=O)C(C(C)C)N(C)C(=O)C3(F)CCN(C(=O)C#CC(C)(C)N(C)C)CC3)C(=O)N3CCCC(N3)C(=O)OCC(C)(C)C2)C1 (stereo unspecified) | – | – | – | – | – | – | – | – | – | viability, T/C (compound 0.000949 µM): 22.6% [middle of 8 runs]; viability, T/C (compound 0.00949 µM): 24.6% [middle of 8 runs]; viability, T/C (compound 0.03 µM): 24.1% [middle of 8 runs]; viability, T/C (compound 0.0949 µM): 24.9% [middle of 8 runs]; viability, T/C (compound 0.3 µM): 24.9% [middle of 8 runs]; IC50 [2]: < 0.949 nM and 4.59 nM |
| C[C@@H](NC(=O)c1ncnc(N)c1Cl)c1ncc(C(=O)Nc2cc(C(F)(F)F)c(Cl)cn2)s1 | 8.88 µM [middle of 4 runs] | 114% [middle of 4 runs] | 112% and 129% and 115% (2×) | 120% [middle of 4 runs] | 112% [middle of 4 runs] | 83.2% [middle of 4 runs] | 45.7% [middle of 4 runs] | – | – | – |
| Cc1nc(N2CCC3(CC2)COC(C)C3N)c(CO)nc1Sc1ccnc(N)c1Cl (stereo unspecified) | – | 65.7% [middle of 4 runs] | 55.1% [middle of 4 runs] | 43.4% [middle of 4 runs] | 41.8% [middle of 4 runs] | 42.2% [middle of 4 runs] | 40.1% [middle of 4 runs] | – | – | – |
| O=C(c1ccc(F)c(F)c1Nc1ccc(I)cc1F)N1CC(O)([C@@H]2CCCCN2)C1 | – | – | 42.2% [middle of 4 runs] | 32.5% [middle of 4 runs] | 27.8% [middle of 4 runs] | – | – | 80.3% [middle of 4 runs] | 69% [middle of 4 runs] | – |

Continued, in another order:

| IC50 (curve of compound) | SMILES | viability, T/C (compound 0.0316 µM) | viability, T/C (compound 0.1 µM) | viability, T/C (compound 0.316 µM) | viability, T/C (compound 1 µM) | viability, T/C (compound 3.16 µM) | viability, T/C (compound 10 µM) | viability, T/C (compound 0.00316 µM) | viability, T/C (compound 0.01 µM) | further results |
| --- | --- | --- | --- | --- | --- | --- | --- | --- | --- | --- |
| < 3.16 nM | C=CC(=O)N1CCN(c2nc(OCC3CCCN3C)nc3c(F)c(-c4nc(N)cc(C)c4C(F)(F)F)c(Cl)cc23)C(C)C1 (stereo unspecified) | 19.9% [middle of 12 runs] | 19.5% [middle of 12 runs] | 22.8% [middle of 12 runs] | 21% [middle of 12 runs] | – | – | 21.7% [middle of 12 runs] | 19.7% [middle of 12 runs] | IC50 [1]: < 3.16 nM |
| 844 nM and 5470 nM and 2640 nM | CC(C)NCC(C(=O)N1CCN(c2ncnc3c2C(C)CC3O)CC1)c1ccc(Cl)cc1 (stereo unspecified) | 93.8% [middle of 4 runs] | 90.7% [middle of 4 runs] | 74.2% [middle of 4 runs] | – | 54.6% [middle of 4 runs] | 42.7% [middle of 4 runs] | – | – | – |
| 144 nM [middle of 4 runs] | CC(Nc1ccc2c(c1)OCCn1cc(N3C(=O)OCC3C(F)F)nc1-2)C(N)=O (stereo unspecified) | 81% [middle of 4 runs] | 53.6% [middle of 4 runs] | 40.8% [middle of 4 runs] | 42.5% [middle of 4 runs] | 37.6% [middle of 4 runs] | 34.7% [middle of 4 runs] | – | – | – |
| 5940 nM and > 10000 nM and 7430 nM | CC1(O)CCCC1n1c(=O)c(C(F)F)cc2cnc(NC3CCN(S(C)(=O)=O)CC3)nc21 (stereo unspecified) | 87% [middle of 4 runs] | 84.6% [middle of 4 runs] | 75.3% [middle of 4 runs] | 83.9% [middle of 4 runs] | – | 51.8% [middle of 4 runs] | – | – | – |
| 44.2 nM and > 300 nM and 89 nM | CCc1c2c(nc3ccc(O)cc13)-c1cc3c(c(=O)n1C2)COC(=O)[C@]3(O)CC | – | – | – | – | – | – | – | – | viability, T/C (compound 0.000949 µM): 85.2% [middle of 4 runs]; viability, T/C (compound 0.003 µM): 73.3% [middle of 4 runs]; viability, T/C (compound 0.00949 µM): 62.9% [middle of 4 runs]; viability, T/C (compound 0.03 µM): 67.4% [middle of 4 runs]; viability, T/C (compound 0.0949 µM): 58.9% [middle of 4 runs]; viability, T/C (compound 0.3 µM): 50% [middle of 4 runs] |
| < 31.6 nM | NC1c2ccccc2OC12CCN(c1cnc3c(N4CCCc5ncccc54)n[nH]c3n1)CC2 (stereo unspecified) | 48.2% [middle of 4 runs] | 44.8% [middle of 4 runs] | 36% [middle of 4 runs] | 47.1% [middle of 4 runs] | 41.8% [middle of 4 runs] | 49% [middle of 4 runs] | – | – | – |

— PubChem BioAssay AID2060896 (Molecular Pharmacology Branch, DTP, NCI, 2025)
